Measured values published in ChEMBL document CHEMBL4152224, “The Identification of Potent, Selective, and Orally Available Inhibitors of Ataxia Telangiectasia Mutated (ATM) Kinase: The Discovery of AZD0156 (8-{6-[3-(Dimethylamino)propoxy]pyridin-3-yl}-3-methyl-1-(tetrahydro-2 H-pyran-4-yl)-1,3-dihydro-2 H-imidazo[4,5- c]quinolin-2-one)” (J Med Chem, 2018).
Values after ≈ are worked out from the molar mass of the structure shown.

Columns and labels:
[1] = Buffer/octanol partition coefficient, log D of the compound at pH 7.4 by shake flask method; format: physicochemical
[2] = Thermodynamic solubility of the compound in 0.1M aqueous phosphate buffer at pH 7.4 after 24 hrs by LC-UV analysis; format: physicochemical; conditions: read-out: Therm_solubility
[3] = Intrinsic clearance in rat hepatocytes assessed per million cells
[4] = Dissociation constant, pKa of the compound; format: physicochemical
[5] = molecular target: Serine-protein kinase ATM (Homo sapiens, UniProt Q13315)
[6] = molecular target: Serine/threonine-protein kinase ATR (Homo sapiens, UniProt Q13535)
Serine/threonine-protein kinase ATR, sequence (Q13535 whole entry): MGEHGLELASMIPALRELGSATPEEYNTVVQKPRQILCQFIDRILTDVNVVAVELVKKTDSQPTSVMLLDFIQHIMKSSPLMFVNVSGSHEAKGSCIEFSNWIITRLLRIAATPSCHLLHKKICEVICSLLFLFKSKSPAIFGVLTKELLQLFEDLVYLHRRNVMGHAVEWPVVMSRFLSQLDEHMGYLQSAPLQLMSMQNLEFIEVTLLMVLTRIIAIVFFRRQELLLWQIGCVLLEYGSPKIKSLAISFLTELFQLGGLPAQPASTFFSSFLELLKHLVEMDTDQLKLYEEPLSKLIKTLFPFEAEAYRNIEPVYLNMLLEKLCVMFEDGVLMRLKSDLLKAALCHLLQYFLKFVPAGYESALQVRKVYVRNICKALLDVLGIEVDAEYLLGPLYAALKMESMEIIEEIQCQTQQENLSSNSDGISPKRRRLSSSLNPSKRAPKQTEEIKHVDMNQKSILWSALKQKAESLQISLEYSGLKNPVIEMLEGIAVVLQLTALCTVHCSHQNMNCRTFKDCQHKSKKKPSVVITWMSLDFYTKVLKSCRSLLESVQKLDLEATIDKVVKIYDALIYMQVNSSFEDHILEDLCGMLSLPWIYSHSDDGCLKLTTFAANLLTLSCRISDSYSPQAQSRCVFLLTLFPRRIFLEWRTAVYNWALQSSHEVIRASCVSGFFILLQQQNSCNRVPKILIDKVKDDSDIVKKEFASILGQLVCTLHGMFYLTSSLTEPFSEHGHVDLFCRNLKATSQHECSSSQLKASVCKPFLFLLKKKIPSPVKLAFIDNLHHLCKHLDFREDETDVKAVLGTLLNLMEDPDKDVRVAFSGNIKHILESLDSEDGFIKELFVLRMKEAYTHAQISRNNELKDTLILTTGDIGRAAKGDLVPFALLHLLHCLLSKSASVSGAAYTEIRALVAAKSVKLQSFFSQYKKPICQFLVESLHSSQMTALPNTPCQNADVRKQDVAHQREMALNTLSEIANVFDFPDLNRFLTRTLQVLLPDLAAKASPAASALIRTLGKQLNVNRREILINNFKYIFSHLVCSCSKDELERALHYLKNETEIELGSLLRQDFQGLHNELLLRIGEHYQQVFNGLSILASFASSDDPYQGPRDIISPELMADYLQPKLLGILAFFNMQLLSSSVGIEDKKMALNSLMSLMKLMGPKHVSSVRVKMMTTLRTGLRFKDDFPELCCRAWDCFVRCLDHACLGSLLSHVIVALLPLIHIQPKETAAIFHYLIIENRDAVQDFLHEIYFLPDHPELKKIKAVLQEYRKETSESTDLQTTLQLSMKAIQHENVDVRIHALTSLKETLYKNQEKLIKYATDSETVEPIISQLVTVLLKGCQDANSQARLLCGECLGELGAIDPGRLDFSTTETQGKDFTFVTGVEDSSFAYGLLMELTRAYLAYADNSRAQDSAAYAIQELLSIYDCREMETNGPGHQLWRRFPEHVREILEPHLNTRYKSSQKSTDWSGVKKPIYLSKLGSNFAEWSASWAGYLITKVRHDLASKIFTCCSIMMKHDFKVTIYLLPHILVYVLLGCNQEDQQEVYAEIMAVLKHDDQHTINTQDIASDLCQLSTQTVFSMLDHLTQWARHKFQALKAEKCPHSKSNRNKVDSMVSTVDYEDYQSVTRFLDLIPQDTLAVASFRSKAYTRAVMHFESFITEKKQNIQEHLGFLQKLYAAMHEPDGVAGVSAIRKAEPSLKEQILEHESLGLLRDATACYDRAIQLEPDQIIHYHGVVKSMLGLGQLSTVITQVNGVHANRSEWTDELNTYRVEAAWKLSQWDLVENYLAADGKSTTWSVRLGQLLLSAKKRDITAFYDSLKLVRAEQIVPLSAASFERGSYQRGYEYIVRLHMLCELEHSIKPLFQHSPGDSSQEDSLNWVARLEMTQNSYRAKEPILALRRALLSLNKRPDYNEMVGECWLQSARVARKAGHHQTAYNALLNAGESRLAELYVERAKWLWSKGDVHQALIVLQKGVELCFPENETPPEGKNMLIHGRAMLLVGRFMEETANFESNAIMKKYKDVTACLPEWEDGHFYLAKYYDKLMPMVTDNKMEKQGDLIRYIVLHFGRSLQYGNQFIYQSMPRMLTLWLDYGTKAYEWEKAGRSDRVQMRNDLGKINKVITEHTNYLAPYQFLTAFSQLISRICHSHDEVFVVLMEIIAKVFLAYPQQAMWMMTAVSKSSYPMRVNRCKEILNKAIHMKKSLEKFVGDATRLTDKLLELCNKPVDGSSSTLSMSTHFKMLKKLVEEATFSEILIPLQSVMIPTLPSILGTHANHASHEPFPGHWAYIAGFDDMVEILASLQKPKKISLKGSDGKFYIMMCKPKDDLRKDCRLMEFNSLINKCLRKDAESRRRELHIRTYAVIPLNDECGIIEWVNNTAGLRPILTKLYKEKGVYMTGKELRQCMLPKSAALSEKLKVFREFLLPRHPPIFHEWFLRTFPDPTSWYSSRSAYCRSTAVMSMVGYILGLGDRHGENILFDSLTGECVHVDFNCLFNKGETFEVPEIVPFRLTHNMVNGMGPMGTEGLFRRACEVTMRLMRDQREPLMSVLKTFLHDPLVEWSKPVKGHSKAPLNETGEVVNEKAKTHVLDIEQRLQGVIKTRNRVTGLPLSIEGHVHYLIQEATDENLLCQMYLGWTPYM

[7] = Intrinsic clearance in human hepatocytes assessed per million cells
[8] = molecular target: Voltage-gated inwardly rectifying potassium channel KCNH2 (Homo sapiens, UniProt Q12809); assay: Inhibition of human ERG by electrophysiology assay
Voltage-gated inwardly rectifying potassium channel KCNH2, sequence (Q12809 whole entry): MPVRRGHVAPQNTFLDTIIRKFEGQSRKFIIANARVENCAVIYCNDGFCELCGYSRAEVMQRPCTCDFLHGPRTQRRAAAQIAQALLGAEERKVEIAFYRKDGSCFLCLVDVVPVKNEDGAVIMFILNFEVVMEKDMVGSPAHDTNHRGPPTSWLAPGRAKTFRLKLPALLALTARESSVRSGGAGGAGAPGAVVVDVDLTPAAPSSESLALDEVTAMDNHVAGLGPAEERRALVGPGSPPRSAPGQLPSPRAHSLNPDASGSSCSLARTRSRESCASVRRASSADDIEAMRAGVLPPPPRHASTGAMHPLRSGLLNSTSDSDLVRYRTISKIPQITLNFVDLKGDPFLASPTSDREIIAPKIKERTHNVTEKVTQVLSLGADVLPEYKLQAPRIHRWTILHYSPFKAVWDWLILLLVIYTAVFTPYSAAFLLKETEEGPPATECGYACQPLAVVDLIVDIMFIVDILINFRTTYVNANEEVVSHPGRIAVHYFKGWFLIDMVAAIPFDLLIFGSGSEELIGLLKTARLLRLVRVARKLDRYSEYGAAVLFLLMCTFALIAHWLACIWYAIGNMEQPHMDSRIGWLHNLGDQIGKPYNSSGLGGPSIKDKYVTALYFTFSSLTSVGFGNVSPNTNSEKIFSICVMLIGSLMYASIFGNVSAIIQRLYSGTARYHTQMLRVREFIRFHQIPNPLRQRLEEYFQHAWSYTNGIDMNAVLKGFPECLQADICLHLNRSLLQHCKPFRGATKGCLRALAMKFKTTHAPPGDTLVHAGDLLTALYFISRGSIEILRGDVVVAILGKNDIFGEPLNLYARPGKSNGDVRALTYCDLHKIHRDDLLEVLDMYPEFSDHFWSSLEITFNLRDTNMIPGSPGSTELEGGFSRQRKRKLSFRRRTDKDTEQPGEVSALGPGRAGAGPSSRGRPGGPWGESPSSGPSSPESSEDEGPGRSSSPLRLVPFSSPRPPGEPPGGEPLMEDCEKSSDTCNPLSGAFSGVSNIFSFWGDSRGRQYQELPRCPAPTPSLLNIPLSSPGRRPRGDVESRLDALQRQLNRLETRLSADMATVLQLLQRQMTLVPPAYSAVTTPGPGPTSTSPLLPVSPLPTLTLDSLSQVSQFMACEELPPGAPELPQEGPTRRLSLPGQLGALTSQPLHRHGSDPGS

[9] = Apparent permeability across apical to basolateral side in MDCK cells overexpressing MDR1; format: ADME, cell-based, Canis lupus familiaris; conditions: dog
in vitro = conditions: dog, MDCK-MDR1
Description: Efflux ratio of apparent permeability across basolateral to apical over apical to basolateral side in MDCK cells overexpressing MDR1

logD [1] | solubility thermodynamic at 24 h [2] | hepatocyte CLint [3] | pKa [4] | IC50 [5] | IC50 [6] | hepatocyte CLint [7] | Papp A→B [9] | efflux ratio (in vitro) | Compound | IC50 [8]
0.6 | 750 µM (≈ 388 µg/mL) | < 1 µL/min/1e6 cells | 8.4 | 27 µM | > 30 µM |  |  |  | CO[C@H]1C[C@@H](n2c(=O)n(C)c3cnc4ccc(-c5ccc(OCCCN6CCC(O)CC6)nc5)cc4c32)C1 | 
2.4 | 99 µM (≈ 41.8 µg/mL) | 7.5 µL/min/1e6 cells |  | 0.45 µM | > 20 µM | < 4 µL/min/1e6 cells | 43 ×10⁻⁶ cm/s | 0.8 | COCc1ccc(-c2cc3c(cc2F)ncc2c3n(C3CCOCC3)c(=O)n2C)cn1 | 27 µM
3 | 49 µM (≈ 20.7 µg/mL) | 4.3 µL/min/1e6 cells |  | 0.16 µM | > 28 µM | 8.4 µL/min/1e6 cells | 28 ×10⁻⁶ cm/s | 0.6 | COCc1ccc(-c2cc3c(cc2F)ncc2c3n([C@H]3C[C@H](OC)C3)c(=O)n2C)cn1 | 8.9 µM
2 | 270 µM (≈ 110 µg/mL) | 6 µL/min/1e6 cells |  | 0.14 µM | > 30 µM | 2.7 µL/min/1e6 cells | 14 ×10⁻⁶ cm/s | 2.6 | COCc1ccc(-c2cc3c(cc2F)ncc2c3n([C@H]3C[C@@H](O)C3)c(=O)n2C)cn1 | 15 µM
0.4 | 930 µM (≈ 416 µg/mL) | 4.8 µL/min/1e6 cells | 10.3 |  |  | 4.4 µL/min/1e6 cells | 0.65 ×10⁻⁶ cm/s | 41 | CNCCCOc1ccc(-c2ccc3ncc4c(c3c2)n([C@H]2C[C@@H](OC)C2)c(=O)n4C)cn1 | > 33 µM
0.7 | 52 µM (≈ 22.5 µg/mL) | 7.8 µL/min/1e6 cells |  |  |  | < 1 µL/min/1e6 cells | 3.2 ×10⁻⁶ cm/s | 9.8 | CN(C)CCCOc1ccc(-c2ccc3ncc4c(c3c2)n(C2COC2)c(=O)n4C)cn1 | > 33 µM
2.9 | 41 µM (≈ 15.9 µg/mL) |  |  | > 30 µM | > 27.6 µM |  |  |  | CC(C)n1c(=O)n(C2CCOCC2)c2c3cc(-c4cccnc4)ccc3ncc21 | 
1.1 | > 1000 µM | 2.7 µL/min/1e6 cells |  |  |  | 3.5 µL/min/1e6 cells | < 0.2 ×10⁻⁶ cm/s | > 100 | CN(C)CCCOc1ccc(-c2ccc3ncc4c(c3c2)n([C@H]2C[C@@H](O)C2)c(=O)n4C)cn1 | > 33 µM
2.3 | 19 µM (≈ 7.68 µg/mL) | 63 µL/min/1e6 cells |  |  | > 13 µM | < 3 µL/min/1e6 cells | 32 ×10⁻⁶ cm/s |  | COCc1ccc(-c2ccc3ncc4c(c3c2)n(C2CCOCC2)c(=O)n4C)cn1 | > 33 µM
2.7 | > 1000 µM | 1.6 µL/min/1e6 cells |  | 0.49 µM | > 30 µM | 22 µL/min/1e6 cells | 27 ×10⁻⁶ cm/s | 0.8 | COCc1ccc(-c2cc3c(cc2F)ncc2c3n([C@@H](C)C3CCOCC3)c(=O)n2C)cn1 | 15 µM
 |  |  |  | 0.005 µM | 10 µM |  |  |  | Cn1c(=O)n(C2CCOCC2)c2c3cc(-c4ccc(OCCC[N+](C)(C)[O-])nc4)ccc3ncc21 | 
1.8 | > 1000 µM | 3.7 µL/min/1e6 cells |  |  | > 23 µM | 5.6 µL/min/1e6 cells | 7.5 ×10⁻⁶ cm/s |  | CN(C)CCCOc1ccc(-c2ccc3ncc4c(c3c2)n([C@@H]2CCCOC2)c(=O)n4C)cn1 | > 33 µM
0.8 |  | 2.5 µL/min/1e6 cells |  | 0.022 µM | > 30 µM | < 1 µL/min/1e6 cells |  |  | CN(C)CCCOc1ccc(-c2ccc3nnc4c(c3c2)n(C2CCOCC2)c(=O)n4C)cn1 | 
2.4 | 12 µM (≈ 4.16 µg/mL) |  |  |  | 0.051 µM |  |  |  | O=c1[nH]c2cnc3ccc(-c4cccnc4)cc3c2n1C1CCOCC1 | 
3.2 | 84 µM (≈ 37.8 µg/mL) | 10 µL/min/1e6 cells |  | 0.24 µM | > 26 µM | 10 µL/min/1e6 cells | 20 ×10⁻⁶ cm/s | 0.6 | COCc1ccc(-c2cc3c(cc2F)ncc2c3n([C@H]3CC[C@H](OC)CC3)c(=O)n2C)cn1 | 27 µM
1.4 | 770 µM (≈ 365 µg/mL) | 2.5 µL/min/1e6 cells |  |  | > 24 µM | 3.3 µL/min/1e6 cells | 3.5 ×10⁻⁶ cm/s | 7.8 | CO[C@H]1C[C@@H](n2c(=O)n(C)c3cnc4ccc(-c5ccc(OCCCN6CCC6)nc5)cc4c32)C1 | > 33 µM
1.5 | > 1000 µM | 8.3 µL/min/1e6 cells |  |  |  | 6.8 µL/min/1e6 cells | 7.9 ×10⁻⁶ cm/s | 4.4 | CN(C)CCCOc1ccc(-c2cc3c(cc2F)ncc2c3n(C3CCOCC3)c(=O)n2C)cn1 | > 33 µM
1.8 | > 1000 µM | 3 µL/min/1e6 cells |  |  |  | 6.1 µL/min/1e6 cells | 6.5 ×10⁻⁶ cm/s |  | CN(C)CCCOc1ccc(-c2ccc3ncc4c(c3c2)n([C@H]2CCCOC2)c(=O)n4C)cn1 | 27 µM
1.6 |  | 9.2 µL/min/1e6 cells |  | 0.0017 µM | 2 µM | 12.8 µL/min/1e6 cells |  |  | CN(C)CCCOc1ccc(-c2ccc3ncc4c(c3n2)n(C2CCOCC2)c(=O)n4C)cn1 | 

The remaining lines, values behind:

Compound | logD [1] | solubility thermodynamic at 24 h [2] | hepatocyte CLint [3] | pKa [4] | IC50 [5] | IC50 [6] | hepatocyte CLint [7] | Papp A→B [9] | efflux ratio (in vitro) | IC50 [8]
CCC(CC)CNc1c(C(N)=O)cnc2cc(F)c(-c3cnc(NCCN4CCCC4)nc3)cc12 | 2.8 |  |  |  | 0.0086 µM | > 30 µM |  | 0.8 ×10⁻⁶ cm/s | 28 | 
CO[C@H]1C[C@@H](n2c(=O)n(C)c3cnc4ccc(-c5ccc(OCCCN6CCCC6)nc5)cc4c32)C1 | 1.8 | > 1100 µM | < 1.3 µL/min/1e6 cells |  | 0.00017 µM | > 24 µM | 5.3 µL/min/1e6 cells | 2.5 ×10⁻⁶ cm/s | 9.4 | > 33 µM
CO[C@H]1C[C@@H](n2c(=O)n(C)c3cnc4ccc(-c5ccc(OCCCN(C)C)nc5F)cc4c32)C1 | 2 | > 1100 µM | 9.3 µL/min/1e6 cells |  |  |  | 15 µL/min/1e6 cells | 4.2 ×10⁻⁶ cm/s |  | > 33 µM
CO[C@H]1C[C@@H](n2c(=O)n(C)c3cnc4cc(F)c(-c5ccc(OCCCN(C)C)nc5F)cc4c32)C1 | 2.1 | > 1000 µM | 9 µL/min/1e6 cells |  |  |  | 14 µL/min/1e6 cells | 10 ×10⁻⁶ cm/s | 2.5 | 22 µM
CO[C@H]1C[C@@H](n2c(=O)n(C)c3cnc4ccc(-c5ccc(OCCCN6CCCCC6)nc5)cc4c32)C1 | 2.2 | > 1000 µM | 4 µL/min/1e6 cells |  |  |  | 3 µL/min/1e6 cells | 5.4 ×10⁻⁶ cm/s |  | 14 µM
CO[C@H]1C[C@@H](n2c(=O)n(C)c3cnc4cc(F)c(-c5ccc(NCCN(C)C)nc5)cc4c32)C1 | 1.7 | > 1000 µM | 9.6 µL/min/1e6 cells |  | 0.006 µM | > 30 µM | 2.8 µL/min/1e6 cells | 3.4 ×10⁻⁶ cm/s | 11 | 24 µM
Cn1c(=O)n(C2CCOCC2)c2c3cc(-c4ccc(OCCCN5CCCCC5)nc4)c(F)cc3ncc21 | 2.1 | 310 µM (≈ 161 µg/mL) | 5.1 µL/min/1e6 cells |  | 0.0012 µM | > 29 µM | 5.3 µL/min/1e6 cells | 6.4 ×10⁻⁶ cm/s | 2.2 | > 33 µM
CO[C@H]1C[C@@H](n2c(=O)n(C)c3cnc4cc(F)c(-c5ccc(C(=O)NCCN(C)C)nc5)cc4c32)C1 | 1.5 | 980 µM (≈ 483 µg/mL) | 2.9 µL/min/1e6 cells |  | 0.13 µM | > 30 µM | 4 µL/min/1e6 cells | 2.5 ×10⁻⁶ cm/s | 11 | > 33 µM
CO[C@H]1C[C@@H](n2c(=O)n(C)c3cnc4cc(F)c(-c5ccc(OCCCN(C)C)nc5)cc4c32)C1 | 1.8 | > 980 µM | 6.6 µL/min/1e6 cells | 9.3 |  |  | 7.9 µL/min/1e6 cells | 6.8 ×10⁻⁶ cm/s | 6.2 | > 33 µM
CO[C@H]1C[C@@H](n2c(=O)n(C)c3cnc4cc(F)c(-c5ccc(NC(=O)CCCN(C)C)nc5)cc4c32)C1 | 1.1 | 870 µM (≈ 441 µg/mL) | 7 µL/min/1e6 cells |  | 0.0082 µM | > 30 µM | 6.5 µL/min/1e6 cells | 0.4 ×10⁻⁶ cm/s | 77 | 18 µM
COCc1ccc(-c2cc3c(N[C@@H](C)c4ccn(C)n4)c(C(N)=O)cnc3cc2F)cn1 |  |  |  |  |  |  |  | 12 ×10⁻⁶ cm/s | 8.7 | 
Cn1c(=O)n([C@H]2CCCOC2)c2c3cc(-c4ccc(OCCCN5CCCCC5)nc4)c(F)cc3ncc21 | 2.4 | 330 µM (≈ 171 µg/mL) | 6.2 µL/min/1e6 cells |  | 0.0011 µM |  | 4 µL/min/1e6 cells | 7.1 ×10⁻⁶ cm/s | 1.4 | 18 µM
CO[C@H]1C[C@@H](n2c(=O)n(C)c3cnc4cc(F)c(-c5ccc(CS(C)(=O)=O)nc5)cc4c32)C1 | 1.3 | 18 µM (≈ 8.47 µg/mL) | 2.4 µL/min/1e6 cells |  | 0.16 µM | > 16 µM |  | 14 ×10⁻⁶ cm/s | 2.4 | 14 µM
CO[C@H]1C[C@@H](n2c(=O)n(C)c3cnc4cc(F)c(-c5ccc(N(C)CCN(C)C)nc5)cc4c32)C1 | 2.2 | > 1000 µM | 18 µL/min/1e6 cells |  | 0.23 µM | > 30 µM | 5.1 µL/min/1e6 cells | 6.3 ×10⁻⁶ cm/s |  | 
CO[C@H]1C[C@@H](n2c(=O)n(C)c3cnc4cc(F)c(-c5ccc(CO)nc5)cc4c32)C1 | 2 | 23 µM (≈ 9.39 µg/mL) | 5 µL/min/1e6 cells |  | 0.23 µM | 15 µM |  | 29 ×10⁻⁶ cm/s | 1.1 | 23 µM
